The text below walks through data of patent publication US5001123A, “2,5-diaryl tetrahydrofurans and analogs thereof as PAF antagonists” (Merck & Co., Inc., priority 1989, dated 1991).

This assay has as its system PAF specific receptor binding site, human platelet membranes. Kind of assay: inhibition of the binding of [3H] N-methylcarbamoyl-PAF to human platelet membranes. The following applies: trans configuration. As to the method:
The compounds of formula (I) inhibit PAF induced functions in both the cellular and tissue levels by changing the PAF binding to its specific receptor site. The ability of a compound of formula (I) to inhibit the PAF binding to its specific receptor binding site on rabbit or human platelet or PMN plasma membranes was measured by a recently developed assay.
The inhibition of ^3 [H]-PAF or ^3 [H]N-methylcarbamoyl-PAF binding to the human or rabbit platelet or PMN plasma membrane by a PAF antagonist of formula (I) was determined by a method employing isotopic labeling and filtration techniques. Generally, a series of Tris buffered solutions of the selected antagonist at predetermined concentrations were prepared. […] Each washed residue was then suspended in 10 ml scintillation solution (Aquasol 2, New England Nuclear, Conn.) and the radioactivity was counted in a Packard Tri-Carb 460CD Liquid Scintillation System. Defining the counts from a test sample as "Total binding with antagonist"; the counts from the control sample C1, as "Total binding C1 "; and the counts from the control sample C2 as "non specific binding C2 ", the percent inhibition of each test antagonist can be determined by the following equations: [formula] […]

In the case of `CCCOc1c(OCC(O)CN2CCOCC2)cc([C@@H]2CC[C@@H](c3cnc(OC)c(OC)c3)O2)cc1S(=O)(=O)CC(C)O` (stereo partly drawn) [Example 3, trans-2-[3-(2-Hydroxypropyl)sulfonyl-4-n-propoxy-5-(3-1-morpholino-2-hydroxypropoxy)phenyl]-5-[5-(2,3-dimethoxy)pyridyl]tetrahydrofuran], the “% inhibition of the binding of [3H] Nmethylcarbamoyl-PAF to human platelet membranes” value is, setting by setting: (3 nM) 11%; (30 nM) 39%.
